Holding throughout (assay): DTP human tumour cell line panel, 48 h
In experiment [1] the test system is NCI-H226 lung.
The test system of experiment [2] is SF-268 CNS.
Experiment [3] deals with A498 renal.
Experiment [4] deals with UACC-257 melanoma.
Experiment [5] has as its system SNB-75 CNS.
In experiment [6] the test system is RXF 393 renal.
In experiment [7] the test system is HCC-2998 colon.
Experiment [8] relates to HOP-62 NSCLC.
For experiment [9], the system named is UO-31 renal.

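Results reflect a 48-hour exposure of cells in 96-well plates to compound at five concentrations. Here, GI50 denotes the concentration required for 50% inhibition of growth. TGI denotes the concentration required for complete inhibition of growth.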

The record followed here is PubChem BioAssay (NCI).

Take `O=C(CCCNC(=O)OCc1ccccc1)OCc1ccc2c(c1)C(=O)c1ccccc1C2=O`: the TGI was 42.6 µM in experiment [1]; more than 100 µM in experiment [2]; more than 100 µM in experiment [3]; more than 100 µM in [4]; 40.3 µM in experiment [5]; 48.5 µM in experiment [6]. Moreover, the values for the TGI in [7], in [8] and in experiment [9] were more than 100 µM, more than 93.4 µM and more than 100 µM, respectively.

Take `CN(/N=C/c1ccnc2ccccc12)c1ccc([N+](=O)[O-])cc1[N+](=O)[O-]`: the TGI is more than 100 µM in experiment [1]; more than 100 µM in experiment [2]; more than 100 µM in [3]; more than 100 µM in [4]; 40 µM in experiment [5]; more than 100 µM in experiment [6]. Besides, the TGI in [7] was more than 100 µM; in experiment [8] it was 89.1 µM; in experiment [9], more than 100 µM.

Turning to `O=C(N/C(=C\c1ccc(Br)cc1)c1nc2ccccc2s1)c1ccccc1`, the TGI in [1], in experiment [2], in [3], in [4], in experiment [5] and in experiment [6] was more than 100 µM each time. Also, the TGI in [9] was more than 100 µM.

Take `CC(=O)OCC(OC(C)=O)C(OC(C)=O)C(OC(C)=O)C(=O)CNn1c(-c2ccccc2)nc2ccc(Br)cc2c1=O` (stereo not drawn): the TGI in experiment [1], in [2], in [3], in experiment [4], in [5] and in experiment [6] was more than 100 µM each time. The TGI in experiment [8] and in experiment [9] was more than 100 µM each time.

`CC(C)CC(CNC(Cc1ccc(Cl)cc1)C(N)=O)NC(=O)C(Cc1cnc[nH]1)NC(=O)CNC(=O)C(NC(=O)C(C)NC(=O)C(Cc1c[nH]c2ccccc12)NC(=O)C(CCC(=O)O)NC(=O)C(N)Cc1ccccc1)C(C)C` (stereo not drawn): the TGI in experiment [3], in experiment [4], in [5], in experiment [6], in experiment [7] and in [8] was more than 133 µM throughout. This compound returned a TGI in [9] of more than 133 µM.

For the compound `CC1=Nc2c([nH]c(=S)[nH]c2=O)NC(c2ccc(Cl)c(Cl)c2)C1` (stereo not drawn), the TGI in experiment [1] is 48.8 µM; in experiment [2], more than 93.1 µM; in experiment [3] it was 33.3 µM; in experiment [4], 47 µM; in experiment [5] it was more than 100 µM; in experiment [6] it was 38.2 µM. The TGI in experiment [7] is 32 µM; in experiment [8], more than 100 µM; in experiment [9], 89.6 µM.

For the compound `CN(C)c1nc(N(C)C)n2nc(-c3ccccc3[N+](=O)[O-])nc2n1`, the TGI in experiment [1], in experiment [2], in experiment [3], in experiment [4], in experiment [5] and in experiment [6] was more than 100 µM each time. The TGI in [7], in [8] and in experiment [9] was more than 100 µM each time.

In the case of `COc1ccc(/C(Cl)=C(\C=O)c2ccc(Br)cc2)cc1OC`, the TGI was more than 100 µM in [1]; more than 100 µM in [2]; more than 100 µM in [3]; more than 100 µM in experiment [4]; 30 µM in [5]; more than 100 µM in [6]. For the same compound, the TGI in experiment [7], in experiment [8] and in experiment [9] was more than 100 µM each time.

As for `O=C(O)c1ccc(N=Nc2cc(S(=O)(=O)O)c3cccnc3c2O)cc1`, the TGI in experiment [1], in [2], in [3], in [4], in [5] and in experiment [6] was more than 100 µM each time. Also, the TGI in experiment [7], in experiment [8] and in experiment [9] was more than 100 µM throughout.

On to `OCC(O)COc1c(Cl)ccc(Cl)c1Cl` (stereo not drawn), for which the TGI in experiment [1], in [2], in experiment [3], in [4], in experiment [5] and in experiment [6] was more than 100 µM each time. Further, the TGI in experiment [7], in [8] and in experiment [9] was more than 100 µM throughout.

As to `CCOC(=O)CC1=NC(=Nc2cc(Cl)ccc2Cl)SC1`, the TGI in experiment [1], in experiment [2], in experiment [3], in experiment [4], in experiment [5] and in experiment [6] was more than 100 µM each time. Besides, the TGI in experiment [7], in [8] and in experiment [9] was more than 100 µM in each case.

For the compound `C[C@H]1COC2(c3ccccc3)CCC(=O)N12` (stereo partly drawn), the TGI in experiment [2], in experiment [3], in [4], in experiment [5], in experiment [6] and in experiment [8] was more than 100 µM in each case.

For `COC(=O)C1=C(c2cc(OC)c(OC)c(OC)c2)OC(c2cc(OC)c(OC)c(OC)c2)C1COC(C)=O` (stereo not drawn), the TGI in experiment [1], in experiment [2], in [3], in [4], in [5] and in [6] was more than 100 µM throughout. Moreover, the TGI in experiment [7], in [8] and in experiment [9] was more than 100 µM in each case.

On to `CCc1ccccc1-n1c2nc(=O)n(C)c(=O)c-2nc2ccccc21`, for which the TGI is 36.4 µM in experiment [1]; 24 µM in experiment [2]; 32.5 µM in experiment [3]; 18.6 µM in experiment [4]; 28.8 µM in experiment [5]; 30 µM in experiment [6]. Further, the TGI in experiment [7] was 25.6 µM; in [8] it was more than 100 µM; in experiment [9], 48.2 µM.

Turning to `O=C(CCc1ccccc1)On1nnc2ccccc2c1=O`, the TGI in experiment [1], in experiment [2], in [3], in [4], in experiment [5] and in experiment [6] was more than 100 µM throughout. The TGI in experiment [7], in experiment [8] and in experiment [9] was more than 100 µM each time.

As to `O=C1OC(c2ccccc2)=N/C1=C\c1c(O)cc(O)cc1O`, the TGI in experiment [2], in [3], in experiment [4], in [5], in [6] and in experiment [9] was more than 100 µM throughout.

On to `Cc1cccc2c1Oc1cc(Cl)ccc1C2NC(=O)CN(C)C` (stereo not drawn), for which the TGI is more than 100 µM in experiment [1]; more than 100 µM in experiment [2]; 89.5 µM in experiment [4]; 68.8 µM in [5]; 87.8 µM in experiment [6]; more than 100 µM in experiment [7]. Moreover, the TGI in experiment [8] and in experiment [9] was more than 100 µM each time.

On to `N#CCC(=O)N/N=C1/C(=O)NC(=O)C(=O)C1c1nc2ccccc2s1` (stereo not drawn), for which the concentration for total growth inhibition (TGI) in experiment [1], in experiment [2], in [3], in [4], in experiment [5] and in [6] was more than 100 µM in each case. The TGI in [7], in experiment [8] and in [9] was more than 100 µM throughout.

In the case of `COc1ccc(/C=C/c2nc(=S)[nH][nH]2)cc1`, the TGI in [1], in experiment [2], in experiment [3], in [4], in [5] and in [6] was more than 100 µM in each case. For the same compound, the TGI in [7] and in [9] was more than 100 µM each time.

Turning to `Cc1ccc(S(=O)(=O)NC(CCC(=O)Nc2ccccc2)C(=O)Nc2ccccc2)cc1` (stereo not drawn), the GI50 was 0.447 µM in experiment [1]; 142 nM in experiment [3]; 0.464 µM in experiment [4]; 0.662 µM in experiment [6]; 274 nM in experiment [9]. Also, the TGI in experiment [1] was 2.59 µM; in experiment [3], 0.897 µM; in [4], 2.36 µM; in experiment [6] it was 2.25 µM; in [9] it was 3.39 µM.

For the compound `COC1(OC)CC2C(=O)N(Cc3ccccc3)C1CC2S(=O)(=O)c1ccccc1` (stereo not drawn), the TGI in experiment [1], in experiment [4], in experiment [5], in [6], in [8] and in experiment [9] was more than 100 µM each time.

For `CCOC(=O)C1=C(NC(C)(C)C)OCC1=O`, the TGI in experiment [1], in experiment [2], in experiment [4], in experiment [5], in experiment [7] and in experiment [8] was more than 100 µM each time. Further, in experiment [9], the TGI is more than 100 µM.

`CCOC(=O)c1cc2cc(NC(=O)c3cc4cc([N+](=O)[O-])ccc4n3C)ccc2n1C`: the GI50 in experiment [1] is 12 µM; in [2] it was 49.1 µM; in [4], 46.6 µM; in experiment [6], 41 µM; in experiment [8], 19.7 µM; in [9] it was more than 100000 nM. The TGI in experiment [1] is 46.6 µM; in [2] it was more than 100 µM; in experiment [4], more than 100 µM; in experiment [6], more than 100 µM; in [8], 35.3 µM; in [9] it was more than 100 µM.
